Values after ≈ are worked out from the molar mass of the structure shown.
Experiments:
[1] = Solubility of pazopanib free base in phosphate buffer; details: 25° C., pH 3.5
physchem = details: phosphate buffer, 25 °C, pH 5, aqueous buffer

Cc1ccc(Nc2nccc(N(C)c3ccc4c(C)n(C)nc4c3)n2)cc1S(N)(=O)=O [pazopanib free base, 5-[[4-[(2,3-dimethyl-2H-indazol-6-yl)methylamino]-2-pyrimidinyl]amino]-2-methylbenzenesulfonamide]
approximate solubility [1]: ~20000 ng/mL | solubility (physchem): ~6 ng/mL (≈ 0.0137 µM)
